Test results: the supplement of paper PMC10307832

What was measured:
Experiment in all cases: relative viability (nuclei count vs DMSO), 5 days (fraction); higher = more cells survive
Entinostat + Bortezomib = compound: Nc1ccccc1NC(=O)c1ccc(CNC(=O)OCc2cccnc2)cc1 [Entinostat] + CC(C)C[C@H](NC(=O)[C@H](Cc1ccccc1)NC(=O)c1cnccn1)B(O)O [Bortezomib] (partner 0.002 µM)
In short: (§1)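 One day after seeding in 1536-well plates, lung cancer cell lines were dosed by pin tool. Dosing was either single-drug or a fixed anchor-drug dose plus five library-drug doses (not always all listed) in √10 steps. After 5 days, nuclei were stained in one fix-and-stain step and counted on 4× images, and relative viability is the nuclei count of treated wells over that of vehicle wells, given as the median of duplicate plates.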

[1] = compound: C1COCCN1C2=NC(=NC3=C2OC4=C3C=CC=N4)C5=CC(=CC=C5)NC(=O)C6=CN=C(C=C6)N + C[C@@H](Oc1cc(-c2cnn(C3CCNCC3)c2)cnc1N)c1c(Cl)ccc(F)c1Cl [Crizotinib] (partner 1 µM)
In short: as §1

[2] = compound: C1COCCN1C2=NC(=NC3=C2OC4=C3C=CC=N4)C5=CC(=CC=C5)NC(=O)C6=CN=C(C=C6)N + C[C@]1(O)C[C@@H](c2nc(-c3ccc4ccc(-c5ccccc5)nc4c3)c3c(N)nccn32)C1 [Linsitinib] (partner 1 µM)
In short: as §1

[3] = compound: C1COCCN1C2=NC(=NC3=C2OC4=C3C=CC=N4)C5=CC(=CC=C5)NC(=O)C6=CN=C(C=C6)N + Nc1ncn([C@H]2C[C@H](O)[C@@H](CO)O2)c(=O)n1 [Decitabine] (partner 2 µM)
In short: as §1

Cell Line | relative viability (Entinostat + Bortezomib; first compound 0.02 µM) | relative viability (Entinostat + Bortezomib; first compound 0.06325 µM) | relative viability (Entinostat + Bortezomib; first compound 0.2 µM) | relative viability (Entinostat + Bortezomib; first compound 0.6325 µM) | relative viability (Entinostat + Bortezomib; first compound 2 µM) | relative viability ([1]; first compound 0.02 µM) | relative viability ([1]; first compound 0.06325 µM) | relative viability ([1]; first compound 0.2 µM) | relative viability ([1]; first compound 0.6325 µM) | relative viability ([1]; first compound 2 µM) | relative viability ([2]; first compound 0.02 µM) | relative viability ([2]; first compound 0.06325 µM) | relative viability ([2]; first compound 0.2 µM) | relative viability ([2]; first compound 0.6325 µM) | relative viability ([2]; first compound 2 µM) | relative viability ([3]; first compound 0.02 µM) | relative viability ([3]; first compound 0.06325 µM) | relative viability ([3]; first compound 0.2 µM) | relative viability ([3]; first compound 0.6325 µM) | relative viability ([3]; first compound 2 µM)
NCI-H2405 | 1.01 | 1.04 | 0.976 | 0.916 | 0.653 | 0.885 | 0.864 | 0.848 | 0.821 | 0.659 | 0.828 | 0.946 | 0.97 | 0.905 | 0.795 | 0.671 | 0.674 | 0.763 | 0.767 | 0.694
NCI-H3122 | 0.951 | 1.07 | 1.06 | 0.869 | 1.01 | 0.312 | 0.236 | 0.242 | 0.271 | 0.24 | 0.93 | 1.11 | 0.976 | 0.988 | 0.821 | 0.391 | 0.354 | 0.366 | 0.487 | 0.322
PC-3 [JPC-3] | 0.853 | 0.814 | 0.824 | 0.409 | 0.508 | 0.961 | 1.02 | 1.02 | 1.04 | 0.64 | 0.994 | 0.969 | 0.969 | 0.918 | 0.908 | 0.846 | 0.8 | – | 0.843 | 0.755
PC-14 | 0.833 | 0.949 | 0.909 | 0.331 | 0.128 | 1.01 | 1.07 | 0.865 | 0.784 | 0.396 | 0.991 | 0.999 | 0.953 | 0.86 | 0.502 | 0.182 | 0.26 | 0.226 | 0.295 | 0.173
RERF-LC-KJ | 1.06 | 1.21 | 0.998 | 0.643 | 0.417 | 1.02 | 0.913 | 0.798 | 0.794 | 0.748 | 0.958 | 0.961 | 0.898 | 0.863 | 0.63 | 0.71 | 0.826 | 0.617 | 0.758 | 0.585
SK-LU-1 | 1.34 | 1.4 | 0.988 | 0.537 | 0.305 | 0.947 | 0.992 | 0.915 | 1.1 | 0.502 | 1.23 | 1.13 | 1.02 | 1.18 | 0.574 | 0.595 | 0.715 | 0.609 | 0.616 | 0.46
SW 1573 | 1.06 | 1.14 | 1.19 | 0.836 | 0.787 | 0.89 | 0.812 | 0.721 | 0.743 | 0.659 | 0.75 | 0.743 | 0.824 | 0.756 | 0.544 | 0.555 | 0.472 | 0.565 | 0.543 | 0.422
